In patent publication US8062859B2, “Method for screening anticancer substances, set or kit for implementing said method” (Centre National de la Recherche Scientifique (CNRS), priority 2005, dated 2011):

Key:
Format in all cases: cell-based
[1] = system: SW620 metastatic cell line; experiment: Invasion test (Matrigel, FluoroBlock inserts)
Method: 2. Invasion Test 1—On D-2, thaw the Matrigel at 4° C. all night 2—On D-1 measure the Matrigel into insert chambers: Put all the necessary material on ice (Matrigel, culture medium, tips, eppendorfs, etc. . . . ). Put the FluoroBlock inserts (FALCON, ref: 351152) in the 24-well plates (FALCON, ref: 353504). Dilute the Matrigel to 2 mg/ml in cold serumless medium (if the cells are to be subjected to a treatment X, include the product in the Matrigel, e.g.: Y 27632) Aliquot 100 μl of 2 mg/ml Matrigel per insert avoiding creating bubbles. Leave O/N at 37° C. in a humid atmosphere (in an incubator) 3—On D day, plate the cells on the Matrigel: First put 700 μl of 10% serum medium in a 24-well plate and transfer the inserts to this plate. Trypsinate the cells (previously treated or not . . . ) and take them up in 2% serum medium. Plate 50 000 cells per insert in 200 μl of 2% serum medium on the Matrigel (optionally put Y27632 into the plated cells). 4—The migration time varies depending on the cell type but generally allowing them to migrate for 8 hours fixing a point every 2 hours seems suitable. To fix them, transfer the inserts to a 24-well plate containing 1 ml of formalin (3.7% formaldehyde in PBS), suck up the culture medium inside the chambers and also add formalin (very important, prevents the cells from continuing to migrate in the Matrigel). […] Read the OD at 490 nm.

[2] = system: SKCo-1 metastatic cell line; experiment: Localisation of E-cadherin at intercellular junctions (immunofluorescent labelling); details: SKCo-1, Y-27632 10 μM for 48 hours, FIG. 1
Method: (§1) 1. Protocol for Immunofluorescent Labelling of e-Cadherin 1—The cells are plated in 6-well plates, each well containing 3 glass coverslips 10 mm in diameter. 2—Place the cells in 0% Serum for 18 to 24 hours then treat them or not with Y27 10 μM+PDGF 5 ng/ml for 36 to 48 h. 3—Fix the cells for 10 minutes with formalin (3.7% formaldehyde in PBS). 4—Saturation, 10 minutes PBS-BSA 5—Incubation of the primary antibody, diluted to 1:500 in PBS-BSA, 2 hours at 37° C. (Mouse anti E-cadherin, ZYMED, ref: 13-1700) 6—2 rapid washes in PBS-0.1% Tween 7—Incubation of the secondary antibody (Alexa Fluor® 488 F(ab′)2 fragment of goat anti mouse IgG, Molecular Probes ref: A-11017), diluted to 1:2000 in PBS-BSA, 30 minutes at 37° C. 8—2 rapid washes in PBS-0.1% Tween 9—Mounting in Mowiol medium between the slide and the coverslip.

[3] = system: CoLo205 metastatic cell line; experiment: as above; details: CoLo205, Y-27632 10 μM for 48 hours, FIG. 1
Method: as §1

[4] = system: SW620 metastatic cell line; experiment: Formation of E-cadherin type intercellular junctions (immunofluorescent labelling of E-cadherin)
Method: as §1

[5] = system: SW620 metastatic cell line; experiment: Spreading ability of the cells (flat versus round phenotype)
Method: FIG. 2 illustrates the effect of the treatment of metastatic cells of the SW620 cell line by the inhibitor Y-27632 on the spreading ability of the cells (FIG. 2A) and on the formation of E-cadherin type adhesion junctions (FIG. 2B). In FIGS. 2 A and 2 B: on the left: control cells without inhibitor; on the right: cells incubated with Y-27632. On the x-axis: the percentage of flat cells (FIG. 2A) or the percentage of cells forming E-cadherin type intercellular junctions (FIG. 2B). 2—Place the cells in 0% Serum for 18 to 24 hours then treat them or not with Y27 10 μM+PDGF 5 ng/ml for 36 to 48 h.

Structure (SMILES): C[C@@H](N)[C@H]1CC[C@H](C(=O)Nc2ccncc2)CC1 [Y-27632]
- level of invasion, compared with CoN normal colon cells (in words) ([1]; SW620 cells after treatment with Y-27632, FIG. 3B): very low level of invasion, comparable to that of CoN normal colon cells
- invasive capacity (in words) ([1]; SW620 cells treated with Y-27632, FIG. 3B): drastically reduce their invasive capacity
- location of E-cadherin at the junctions (in words) [2]: causes correct relocation of E-cadherin at the junctions
- location of E-cadherin at the junctions (in words) [3]: causes correct relocation of E-cadherin at the junctions
- location of E-cadherin at the junctions (in words) ([4]; SW620, Y-27632 10 μM for 48 hours, FIG. 1): causes correct relocation of E-cadherin at the junctions
- percentage of cells capable of forming E-cadherin type junctions ([4]; SW620 cells after treatment with Y-27632, FIG. 2B (control 22%)): 52%
- formation of E-cadherin dependent junctions (in words) ([4]; SW620 cells, FIG. 1B and FIG. 2B): enhances
- percentage of flat cells ([5]; SW620 cells after treatment with Y-27632, FIG. 2A (control 30%)): 90%
- percentage of cells retaining a round phenotype ([5]; SW620 cells after treatment with Y-27632, FIG. 2A (control 70%)): 10%
- spreading ability of the cells (in words) ([5]; SW620 cells, FIG. 2A): enhances the spreading ability
